Laboratory results published in patent EP2818471A1, “Nitrogen bicyclic compounds as inhibitors for Scyl1 and Grk5” (Max-Planck-Gesellschaft zur Förderung der Wissenschaften …, priority 2013, dated 2014).

System: beta-TC6 cells
Test: Insulin HTRF assay, relative activity Ar normalized to sunitinib
Type: cell-based
Details: Mus musculus, normalized to positive control sunitinib (5 µM = 100%), Table 10
Outline: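 beta-TC6 cells (15k/well) were seeded for 24 or 48 h, washed and exposed to test compound or sunitinib (5 µM f.c.) in induction buffer with 0.5% DMSO for 2, 3 or 4 h at 37°C. Secreted insulin in the supernatant was measured by two-antibody HTRF after 120 min at RT. Ar = (V − 0% control)/(100% control − 0% control) × 100.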

Compound	Emax [%]
Cn1cc(-c2cn3c(-c4ccc(O)cc4)cnc3cn2)cn1 [compound 327, 4-[6-(1-methylpyrazol-4-yl)imidazo[1,2-a]pyrazin-3-yl]phenol]	20 to 50
CCOc1cccc(-c2cn3c(-c4ccc(CCC(=O)O)cc4)cnc3cn2)c1 [compound 328, 3-[4-[6-(3-ethoxyphenyl)imidazo[1,2-a]pyrazin-3-yl]phenyl]propanoic acid]	≥ 100
O=C(O)CCc1ccc(-c2cnc3cnc(-c4cccc(Cl)c4)cn23)cc1 [compound 329, 3-[4-[6-(3-chlorophenyl)imidazo[1,2-a]pyrazin-3-yl]phenyl]propanoic acid]	20 to 50
Cc1ccccc1-c1cn2c(-c3ccc(CCC(=O)O)cc3)cnc2cn1 [compound 330, 3-[4-[6-(o-tolyl)imidazo[1,2-a]pyrazin-3-yl]phenyl]propanoic acid]	20 to 50
O=C(O)CCc1ccc(-c2cnc3cnc(-c4ccccc4Cl)cn23)cc1 [compound 331, 3-[4-[6-(2-chlorophenyl)imidazo[1,2-a]pyrazin-3-yl]phenyl]propanoic acid]	50 to 100
O=C(O)CCc1ccc(-c2cnc3cnc(-c4cccs4)cn23)cc1 [compound 332, 3-[4-[6-(2-thienyl)imidazo[1,2-a]pyrazin-3-yl]phenyl]propanoic acid]	20 to 50
O=C(O)CCc1ccc(-c2cnc3cnc(-c4ccccc4CO)cn23)cc1 [compound 333, 3-[4-[6-[2-(hydroxymethyl)phenyl]imidazo[1,2-a]pyrazin-3-yl]phenyl]propanoic acid]	20 to 50
Cc1cccc(-c2cn3c(-c4ccc(CCC(=O)O)cc4)cnc3cn2)c1C [compound 334, 3-[4-[6-(2,3-dimethylphenyl)imidazo[1,2-a]pyrazin-3-yl]phenyl]propanoic acid]	50 to 100
N#Cc1ccc(-c2cnc3cnc(-c4ccccc4)cn23)cc1 [compound 335, 4-(6-phenylimidazo[1,2-a]pyrazin-3-yl)benzonitrile]	20 to 50
N#Cc1ccc(-c2cnc3cnc(-c4ccsc4)cn23)cc1 [compound 336, 4-[6-(3-thienyl)imidazo[1,2-a]pyrazin-3-yl]benzonitrile]	20 to 50
N#Cc1ccc(-c2cnc3cnc(-c4ccc(Cl)cc4)cn23)cc1 [compound 337, 4-[6-(4-chlorophenyl)imidazo[1,2-a]pyrazin-3-yl]benzonitrile]	50 to 100
N#Cc1ccc(-c2cnc3cnc(-c4ccc(CO)cc4)cn23)cc1 [compound 338, 4-[6-[4-(hydroxymethyl)phenyl]imidazo[1,2-a]pyrazin-3-yl]benzonitrile]	20 to 50
N#Cc1ccc(-c2cnc3cnc(-c4cccs4)cn23)cc1 [compound 339, 4-[6-(2-thienyl)imidazo[1,2-a]pyrazin-3-yl]benzonitrile]	20 to 50
COc1cc(-c2cnc3cnc(-c4ccc(N5CCN(C)CC5)nc4)cn23)cc(OC)c1OC [compound 340, 6-[6-(4-methylpiperazin-1-yl)-3-pyridyl]-3-(3,4,5-trimethoxyphenyl)imidazo[1,2-a]pyrazine]	20 to 50
CN(C)c1cccc(-c2cnc3cnc(-c4ccncc4)cn23)c1 [compound 342, N,N-dimethyl-3-[6-(4-pyridyl)imidazo[1,2-a]pyrazin-3-yl]aniline]	20 to 50
CN(C)c1cccc(-c2cnc3cnc(-c4ccsc4)cn23)c1 [compound 343, N,N-dimethyl-3-[6-(3-thienyl)imidazo[1,2-a]pyrazin-3-yl]aniline]	50 to 100
CN(C)c1cccc(-c2cnc3cnc(-c4ccc(CO)cc4)cn23)c1 [compound 344, [4-[3-[3-(dimethylamino)phenyl]imidazo[1,2-a]pyrazin-6-yl]phenyl]methanol]	20 to 50
CN(C)c1cccc(-c2cnc3cnc(-c4cccs4)cn23)c1 [compound 345, N,N-dimethyl-3-[6-(2-thienyl)imidazo[1,2-a]pyrazin-3-yl]aniline]	20 to 50
COc1cc(OC)cc(-c2cn3c(-c4cccc(N(C)C)c4)cnc3cn2)c1 [compound 346, 3-[6-(3,5-dimethoxyphenyl)imidazo[1,2-a]pyrazin-3-yl]-N,N-dimethyl-aniline]	20 to 50
Clc1ccc(-c2cnc3cnc(-c4ccncc4)cn23)cc1 [compound 347, 3-(4-chlorophenyl)-6-(4-pyridyl)imidazo[1,2-a]pyrazine]	20 to 50
Clc1ccc(-c2cnc3cnc(-c4ccsc4)cn23)cc1 [compound 348, 3-(4-chlorophenyl)-6-(3-thienyl)imidazo[1,2-a]pyrazine]	50 to 100
Clc1ccc(-c2cnc3cnc(-c4cccs4)cn23)cc1 [compound 349, 3-(4-chlorophenyl)-6-(2-thienyl)imidazo[1,2-a]pyrazine]	20 to 50
CC(=O)Nc1cccc(-c2cn3c(-c4ccc(F)c(Cl)c4)cnc3cn2)c1 [compound 350, N-[3-[3-(3-chloro-4-fluoro-phenyl)imidazo[1,2-a]pyrazin-6-yl]phenyl]acetamide]	20 to 50

Compound	Emax [%]
Fc1ccc(-c2cnc3cnc(-c4ccco4)cn23)cc1Cl [compound 351, 3-(3-chloro-4-fluoro-phenyl)-6-(2-furyl)imidazo[1,2-a]pyrazine]	20 to 50
FC(F)(F)Oc1cccc(-c2cnc3cnc(-c4cccnc4)cn23)c1 [compound 352, 6-(3-pyridyl)-3-[3-(trifluoromethoxy)phenyl]imidazo[1,2-a]pyrazine]	20 to 50
O=C(NCCO)c1cccc(-c2cn3c(-c4cccc(OC(F)(F)F)c4)cnc3cn2)c1 [compound 353, N-(2-hydroxyethyl)-3-[3-[3-(trifluoromethoxy)phenyl]imidazo[1,2-a]pyrazin-6-yl]benzamide]	20 to 50
CN1CCN(C(=O)c2cccc(-c3cnc4cnc(-c5ccc6c(c5)OCO6)cn34)c2)CC1 [compound 355, [3-[6-(1,3-benzodioxol-5-yl)imidazo[1,2-a]pyrazin-3-yl]phenyl]-(4-methylpiperazin-1-yl)methanone]	20 to 50
CN1CCN(C(=O)c2cccc(-c3cnc4cnc(-c5ccc6c(ccn6C)c5)cn34)c2)CC1 [compound 358, [3-[6-(1-methylindol-5-yl)imidazo[1,2-a]pyrazin-3-yl]phenyl]-(4-methylpiperazin-1-yl)methanone]	20 to 50
CN1CCN(C(=O)c2cccc(-c3cnc4cnc(-c5ccc(CNc6ccccc6)cc5)cn34)c2)CC1 [compound 359, [3-[6-[4-(anilinomethyl)phenyl]imidazo[1,2-a]pyrazin-3-yl]phenyl]-(4-methylpiperazin-1-yl)methanone]	10 to 20
OCc1ccc(-c2cn3c(-c4cccc(Cl)c4)cnc3cn2)cc1 [compound 360, [4-[3-(3-chlorophenyl)imidazo[1,2-a]pyrazin-6-yl]phenyl]methanol]	20 to 50
COc1ccc(-c2cnc3cnc(-c4ccc(CO)cc4)cn23)cc1 [compound 361, [4-[3-(4-methoxyphenyl)imidazo[1,2-a]pyrazin-6-yl]phenyl]methanol]	50 to 100
COc1ccc(-c2cnc3cnc(-c4cccs4)cn23)cc1 [compound 362, 3-(4-methoxyphenyl)-6-(2-thienyl)imidazo[1,2-a]pyrazine]	20 to 50
COc1ccc(-c2cnc3cnc(-c4ccc(N)nc4)cn23)cc1 [compound 363, 5-[3-(4-methoxyphenyl)imidazo[1,2-a]pyrazin-6-yl]pyridin-2-amine]	20 to 50
Oc1cccc(-c2cnc3cnc(-c4cc5ccccc5s4)cn23)c1 [compound 364, 3-[6-(benzothiophen-2-yl)imidazo[1,2-a]pyrazin-3-yl]phenol]	50 to 100
Oc1cccc(-c2cnc3cnc(-c4ccc(Cl)cc4)cn23)c1 [compound 365, 3-[6-(4-chlorophenyl)imidazo[1,2-a]pyrazin-3-yl]phenol]	20 to 50
Oc1cccc(-c2cnc3cnc(/C=C/c4ccccc4)cn23)c1 [compound 366, 3-[6-[(E)-styryl]imidazo[1,2-a]pyrazin-3-yl]phenol]	20 to 50
CN1CCN(c2ccc(-c3cn4c(-c5cccc(O)c5)cnc4cn3)cc2)CC1 [compound 367, 3-[6-[4-(4-methylpiperazin-1-yl)phenyl]imidazo[1,2-a]pyrazin-3-yl]phenol]	20 to 50
Oc1cccc(-c2cnc3cnc(-c4cccc(Cl)c4)cn23)c1 [compound 368, 3-[6-(3-chlorophenyl)imidazo[1,2-a]pyrazin-3-yl]phenol]	20 to 50
COc1ccc(-c2cn3c(-c4cccc(O)c4)cnc3cn2)cn1 [compound 369, 3-[6-(6-methoxy-3-pyridyl)imidazo[1,2-a]pyrazin-3-yl]phenol]	20 to 50
Oc1cccc(-c2cnc3cnc(-c4cccs4)cn23)c1 [compound 370, 3-[6-(2-thienyl)imidazo[1,2-a]pyrazin-3-yl]phenol]	20 to 50
COc1cc(OC)cc(-c2cn3c(-c4cccc(O)c4)cnc3cn2)c1 [compound 371, 3-[6-(3,5-dimethoxyphenyl)imidazo[1,2-a]pyrazin-3-yl]phenol]	20 to 50
COc1cccc(-c2cn3c(-c4cccc(O)c4)cnc3cn2)c1F [compound 372, 3-[6-(2-fluoro-3-methoxy-phenyl)imidazo[1,2-a]pyrazin-3-yl]phenol]	20 to 50
OCc1ccc(-c2cnc3cnc(-c4ccco4)cn23)cc1 [compound 373, [4-[6-(2-furyl)imidazo[1,2-a]pyrazin-3-yl]phenyl]methanol]	20 to 50
OCc1ccc(-c2cnc3cnc(-c4ccc(Cl)cc4Cl)cn23)cc1 [compound 374, [4-[6-(2,4-dichlorophenyl)imidazo[1,2-a]pyrazin-3-yl]phenyl]methanol]	20 to 50
O=C(NC1CCCC1)c1ccc(-c2cn3c(-c4ccc(CO)cc4)cnc3cn2)cc1 [compound 375, N-cyclopentyl-4-[3-[4-(hydroxymethyl)phenyl]imidazo[1,2-a]pyrazin-6-yl]benzamide]	20 to 50
OCc1cccc(-c2cnc3cnc(-c4ccccc4)cn23)c1 [compound 376, [3-(6-phenylimidazo[1,2-a]pyrazin-3-yl)phenyl]methanol]	20 to 50
